Measured values from ChEMBL document CHEMBL5696441 (Nat Chem Biol, 2011).

Columns and labels:
[1] = target: T1, Megakaryocyte-associated tyrosine-protein kinase (Homo sapiens) (UniProt P42679); experiment: Inhibition of CTK (unknown origin) assessed as remaining activity at 1 uM by Kinome scan method relative to control
T1 sequence (whole entry): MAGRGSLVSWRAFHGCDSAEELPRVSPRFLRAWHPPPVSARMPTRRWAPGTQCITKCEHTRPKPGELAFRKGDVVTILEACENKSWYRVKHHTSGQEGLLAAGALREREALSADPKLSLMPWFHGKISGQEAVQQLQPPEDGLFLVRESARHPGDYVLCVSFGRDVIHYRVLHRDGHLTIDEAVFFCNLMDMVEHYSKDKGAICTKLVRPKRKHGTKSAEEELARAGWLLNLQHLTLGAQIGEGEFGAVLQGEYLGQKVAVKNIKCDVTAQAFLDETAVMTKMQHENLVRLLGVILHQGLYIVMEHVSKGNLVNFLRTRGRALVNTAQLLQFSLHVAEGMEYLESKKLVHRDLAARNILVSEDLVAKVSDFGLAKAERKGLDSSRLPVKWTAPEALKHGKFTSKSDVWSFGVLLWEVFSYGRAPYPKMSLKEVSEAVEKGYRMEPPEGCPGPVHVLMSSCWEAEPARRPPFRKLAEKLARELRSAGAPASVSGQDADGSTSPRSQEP

[2] = target: Tyrosine-protein kinase Blk (Homo sapiens) (UniProt P51451); experiment: Inhibition of BLK (unknown origin) assessed as remaining activity at 1 uM by Kinome scan method relative to control
[3] = target: Death-associated protein kinase 2 (Homo sapiens) (UniProt Q9UIK4); experiment: Inhibition of DAPK2 (unknown origin) assessed as remaining activity at 1 uM by Kinome scan method relative to control
[4] = target: Serine/threonine-protein kinase pim-2 (Homo sapiens) (UniProt Q9P1W9); experiment: Inhibition of PIM2 (unknown origin) assessed as remaining activity at 1 uM by Kinome scan method relative to control
[5] = target: Phosphatidylinositol 4,5-bisphosphate 3-kinase catalytic subunit gamma isoform (Homo sapiens) (UniProt P48736); experiment: Inhibition of PIK3CG (unknown origin) assessed as remaining activity at 1 uM by Kinome scan method relative to control
[6] = target: T2, Inhibitor of nuclear factor kappa-B kinase subunit alpha (Homo sapiens) (UniProt O15111); experiment: Inhibition of IKK-alpha (unknown origin) assessed as remaining activity at 1 uM by Kinome scan method relative to control
T2 sequence (whole entry): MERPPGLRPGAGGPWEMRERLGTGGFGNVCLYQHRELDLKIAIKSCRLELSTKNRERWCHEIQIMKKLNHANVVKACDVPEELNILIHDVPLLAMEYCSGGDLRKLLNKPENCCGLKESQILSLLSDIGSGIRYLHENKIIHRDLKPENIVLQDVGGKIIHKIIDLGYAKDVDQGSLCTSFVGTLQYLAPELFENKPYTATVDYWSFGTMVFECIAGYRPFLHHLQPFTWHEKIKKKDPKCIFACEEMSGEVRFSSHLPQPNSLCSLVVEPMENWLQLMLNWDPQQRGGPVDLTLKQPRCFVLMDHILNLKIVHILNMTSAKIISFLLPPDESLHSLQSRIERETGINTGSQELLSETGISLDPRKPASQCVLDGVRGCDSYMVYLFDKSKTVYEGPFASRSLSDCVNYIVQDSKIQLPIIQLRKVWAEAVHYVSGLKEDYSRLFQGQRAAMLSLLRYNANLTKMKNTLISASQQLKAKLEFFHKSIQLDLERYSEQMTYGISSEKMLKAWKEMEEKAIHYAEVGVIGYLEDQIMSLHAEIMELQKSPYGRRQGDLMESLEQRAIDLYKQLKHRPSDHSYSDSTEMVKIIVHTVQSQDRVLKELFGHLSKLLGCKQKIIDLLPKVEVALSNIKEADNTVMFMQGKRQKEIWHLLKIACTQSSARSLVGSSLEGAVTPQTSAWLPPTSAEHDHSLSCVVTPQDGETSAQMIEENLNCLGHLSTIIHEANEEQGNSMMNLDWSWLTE

[7] = target: Protein kinase C eta type (Homo sapiens) (UniProt P24723); experiment: Inhibition of PRKCH (unknown origin) assessed as remaining activity at 1 uM by Kinome scan method relative to control
[8] = target: Serine/threonine-protein kinase PAK 5 (Homo sapiens) (UniProt Q9P286); experiment: Inhibition of PAK7 (unknown origin) assessed as remaining activity at 1 uM by Kinome scan method relative to control
[9] = target: TGF-beta receptor type-2 (Homo sapiens) (UniProt P37173); experiment: Inhibition of TGFBR2 (unknown origin) assessed as remaining activity at 1 uM by Kinome scan method relative to control
[10] = system: Phosphatidylinositol 4,5-bisphosphate 3-kinase catalytic subunit alpha isoform (Homo sapiens), P42336 [H1047L]; experiment: Inhibition of PIK3CA H1047L mutant (unknown origin) assessed as remaining activity at 1 uM by Kinome scan method relative to control
[11] = target: Serine/threonine-protein kinase MRCK gamma (Homo sapiens) (UniProt Q6DT37); experiment: Inhibition of DMPK2 (unknown origin) assessed as remaining activity at 1 uM by Kinome scan method relative to control
[12] = target: Misshapen-like kinase 1 (Homo sapiens) (UniProt Q8N4C8); experiment: Inhibition of MINK (unknown origin) assessed as remaining activity at 1 uM by Kinome scan method relative to control
[13] = target: Ephrin type-A receptor 2 (Homo sapiens) (UniProt P29317); experiment: Inhibition of EPHA2 (unknown origin) assessed as remaining activity at 1 uM by Kinome scan method relative to control
[14] = target: Serine/threonine-protein kinase RIO1 (Homo sapiens) (UniProt Q9BRS2); experiment: Inhibition of RIOK1 (unknown origin) assessed as remaining activity at 1 uM by Kinome scan method relative to control
[15] = target: T3, Serine/threonine-protein kinase NLK (Homo sapiens) (UniProt Q9UBE8); experiment: Inhibition of NLK (unknown origin) assessed as remaining activity at 1 uM by Kinome scan method relative to control
T3 sequence (whole entry): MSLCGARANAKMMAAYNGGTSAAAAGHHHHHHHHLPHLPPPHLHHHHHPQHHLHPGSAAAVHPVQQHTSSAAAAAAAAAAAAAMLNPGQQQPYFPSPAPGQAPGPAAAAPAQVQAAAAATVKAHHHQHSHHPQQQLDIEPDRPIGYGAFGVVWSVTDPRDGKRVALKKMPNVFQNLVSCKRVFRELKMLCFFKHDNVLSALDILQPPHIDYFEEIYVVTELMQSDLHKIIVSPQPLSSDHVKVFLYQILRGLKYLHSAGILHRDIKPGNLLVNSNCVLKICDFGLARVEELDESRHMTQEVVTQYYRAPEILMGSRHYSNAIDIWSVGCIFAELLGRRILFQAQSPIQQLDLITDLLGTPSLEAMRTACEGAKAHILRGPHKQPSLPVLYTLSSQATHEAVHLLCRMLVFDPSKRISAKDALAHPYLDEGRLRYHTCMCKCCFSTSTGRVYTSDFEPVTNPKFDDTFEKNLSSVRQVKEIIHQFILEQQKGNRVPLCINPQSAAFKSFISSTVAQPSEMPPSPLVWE

Serine/threonine-protein kinase RIO1 (Homo sapiens), sequence (Q9BRS2 whole entry): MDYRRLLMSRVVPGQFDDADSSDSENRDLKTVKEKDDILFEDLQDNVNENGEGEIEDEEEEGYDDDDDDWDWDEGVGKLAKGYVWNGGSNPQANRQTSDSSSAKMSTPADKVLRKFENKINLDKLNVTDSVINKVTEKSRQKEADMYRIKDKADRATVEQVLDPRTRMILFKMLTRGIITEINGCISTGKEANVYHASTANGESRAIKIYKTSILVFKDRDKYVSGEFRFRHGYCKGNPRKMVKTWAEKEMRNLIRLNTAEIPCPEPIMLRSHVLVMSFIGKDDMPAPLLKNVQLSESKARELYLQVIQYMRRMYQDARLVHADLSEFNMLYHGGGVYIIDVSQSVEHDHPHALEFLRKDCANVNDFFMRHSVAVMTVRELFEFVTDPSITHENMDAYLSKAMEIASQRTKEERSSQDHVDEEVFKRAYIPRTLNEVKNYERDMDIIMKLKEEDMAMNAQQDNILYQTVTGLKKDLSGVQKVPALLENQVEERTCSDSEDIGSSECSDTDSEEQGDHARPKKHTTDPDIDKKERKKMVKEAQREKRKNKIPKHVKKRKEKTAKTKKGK
Serine/threonine-protein kinase MRCK gamma (Homo sapiens), sequence (Q6DT37 whole entry): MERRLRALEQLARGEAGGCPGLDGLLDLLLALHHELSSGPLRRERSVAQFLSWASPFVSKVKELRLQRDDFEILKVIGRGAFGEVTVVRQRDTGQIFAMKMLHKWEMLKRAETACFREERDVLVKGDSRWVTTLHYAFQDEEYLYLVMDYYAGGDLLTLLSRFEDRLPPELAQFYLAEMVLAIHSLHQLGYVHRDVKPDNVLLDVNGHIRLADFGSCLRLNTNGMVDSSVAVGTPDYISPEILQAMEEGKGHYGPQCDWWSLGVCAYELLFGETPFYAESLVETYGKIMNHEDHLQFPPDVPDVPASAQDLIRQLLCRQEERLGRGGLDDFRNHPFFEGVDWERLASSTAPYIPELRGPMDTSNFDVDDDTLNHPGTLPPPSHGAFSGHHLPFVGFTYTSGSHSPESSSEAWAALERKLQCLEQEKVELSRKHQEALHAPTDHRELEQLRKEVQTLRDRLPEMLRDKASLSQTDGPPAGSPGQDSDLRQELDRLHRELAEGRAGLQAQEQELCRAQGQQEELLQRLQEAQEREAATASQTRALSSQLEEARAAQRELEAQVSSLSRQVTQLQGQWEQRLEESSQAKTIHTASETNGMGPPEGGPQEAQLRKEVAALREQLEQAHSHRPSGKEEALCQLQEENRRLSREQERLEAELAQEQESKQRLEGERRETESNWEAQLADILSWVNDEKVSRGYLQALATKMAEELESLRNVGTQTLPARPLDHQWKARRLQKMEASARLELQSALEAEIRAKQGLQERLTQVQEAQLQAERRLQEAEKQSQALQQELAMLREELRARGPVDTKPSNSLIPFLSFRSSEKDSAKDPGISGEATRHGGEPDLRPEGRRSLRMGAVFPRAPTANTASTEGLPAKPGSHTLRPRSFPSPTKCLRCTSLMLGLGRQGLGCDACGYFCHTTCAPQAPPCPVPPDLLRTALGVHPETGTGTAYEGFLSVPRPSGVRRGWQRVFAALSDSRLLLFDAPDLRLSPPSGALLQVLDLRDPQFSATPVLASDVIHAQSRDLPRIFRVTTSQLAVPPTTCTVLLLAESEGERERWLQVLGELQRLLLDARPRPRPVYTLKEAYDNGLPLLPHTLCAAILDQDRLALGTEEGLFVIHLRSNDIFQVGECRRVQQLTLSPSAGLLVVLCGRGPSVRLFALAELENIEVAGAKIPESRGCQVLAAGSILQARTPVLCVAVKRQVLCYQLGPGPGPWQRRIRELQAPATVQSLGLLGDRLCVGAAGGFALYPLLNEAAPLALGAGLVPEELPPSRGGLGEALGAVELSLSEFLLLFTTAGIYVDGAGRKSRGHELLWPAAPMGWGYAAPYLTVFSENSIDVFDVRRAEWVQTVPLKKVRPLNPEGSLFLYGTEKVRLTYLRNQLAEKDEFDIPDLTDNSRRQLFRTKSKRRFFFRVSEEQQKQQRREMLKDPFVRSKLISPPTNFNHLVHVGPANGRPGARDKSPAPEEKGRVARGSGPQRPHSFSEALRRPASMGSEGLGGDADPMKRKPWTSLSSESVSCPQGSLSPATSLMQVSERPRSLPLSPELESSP
Serine/threonine-protein kinase PAK 5 (Homo sapiens), sequence (Q9P286 whole entry, looked up): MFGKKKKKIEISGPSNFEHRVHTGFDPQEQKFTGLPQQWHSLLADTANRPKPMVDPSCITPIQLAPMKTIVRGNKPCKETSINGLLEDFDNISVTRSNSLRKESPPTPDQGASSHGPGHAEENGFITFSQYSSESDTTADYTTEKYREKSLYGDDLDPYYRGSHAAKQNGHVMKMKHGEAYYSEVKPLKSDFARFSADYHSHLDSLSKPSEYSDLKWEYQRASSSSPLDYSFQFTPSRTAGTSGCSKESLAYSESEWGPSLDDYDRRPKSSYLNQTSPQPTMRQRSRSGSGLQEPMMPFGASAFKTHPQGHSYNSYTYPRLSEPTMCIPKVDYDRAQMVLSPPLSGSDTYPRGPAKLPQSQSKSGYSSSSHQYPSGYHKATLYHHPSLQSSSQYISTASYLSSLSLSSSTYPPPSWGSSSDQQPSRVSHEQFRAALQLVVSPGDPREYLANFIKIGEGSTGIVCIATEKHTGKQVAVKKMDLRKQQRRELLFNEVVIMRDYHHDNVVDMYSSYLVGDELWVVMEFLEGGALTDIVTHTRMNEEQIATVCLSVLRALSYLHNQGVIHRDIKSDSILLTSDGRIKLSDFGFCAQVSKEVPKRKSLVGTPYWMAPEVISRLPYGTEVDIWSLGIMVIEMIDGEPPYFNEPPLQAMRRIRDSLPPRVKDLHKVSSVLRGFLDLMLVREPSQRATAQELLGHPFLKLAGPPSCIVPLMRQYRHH
Death-associated protein kinase 2 (Homo sapiens), sequence (Q9UIK4 whole entry, looked up): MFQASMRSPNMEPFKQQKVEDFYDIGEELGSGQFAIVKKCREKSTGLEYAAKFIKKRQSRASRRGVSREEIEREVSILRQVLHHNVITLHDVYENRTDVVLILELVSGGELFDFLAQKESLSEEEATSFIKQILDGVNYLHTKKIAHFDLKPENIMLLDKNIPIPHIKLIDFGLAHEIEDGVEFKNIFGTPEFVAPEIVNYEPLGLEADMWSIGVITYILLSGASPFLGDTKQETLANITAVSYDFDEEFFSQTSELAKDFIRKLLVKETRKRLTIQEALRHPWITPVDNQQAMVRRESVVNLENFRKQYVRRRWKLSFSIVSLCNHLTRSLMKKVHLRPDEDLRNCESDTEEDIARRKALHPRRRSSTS
Serine/threonine-protein kinase pim-2 (Homo sapiens), sequence (Q9P1W9 whole entry, looked up, canonical isoform): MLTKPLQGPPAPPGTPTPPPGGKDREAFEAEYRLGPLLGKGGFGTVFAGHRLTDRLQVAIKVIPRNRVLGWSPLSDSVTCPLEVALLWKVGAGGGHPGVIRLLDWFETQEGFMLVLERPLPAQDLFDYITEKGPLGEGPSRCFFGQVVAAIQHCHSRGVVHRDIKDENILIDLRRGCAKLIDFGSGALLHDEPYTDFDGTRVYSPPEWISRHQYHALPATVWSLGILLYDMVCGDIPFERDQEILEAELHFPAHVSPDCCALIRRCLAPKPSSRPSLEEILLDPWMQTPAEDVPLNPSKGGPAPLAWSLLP
Ephrin type-A receptor 2 (Homo sapiens), sequence (P29317 whole entry): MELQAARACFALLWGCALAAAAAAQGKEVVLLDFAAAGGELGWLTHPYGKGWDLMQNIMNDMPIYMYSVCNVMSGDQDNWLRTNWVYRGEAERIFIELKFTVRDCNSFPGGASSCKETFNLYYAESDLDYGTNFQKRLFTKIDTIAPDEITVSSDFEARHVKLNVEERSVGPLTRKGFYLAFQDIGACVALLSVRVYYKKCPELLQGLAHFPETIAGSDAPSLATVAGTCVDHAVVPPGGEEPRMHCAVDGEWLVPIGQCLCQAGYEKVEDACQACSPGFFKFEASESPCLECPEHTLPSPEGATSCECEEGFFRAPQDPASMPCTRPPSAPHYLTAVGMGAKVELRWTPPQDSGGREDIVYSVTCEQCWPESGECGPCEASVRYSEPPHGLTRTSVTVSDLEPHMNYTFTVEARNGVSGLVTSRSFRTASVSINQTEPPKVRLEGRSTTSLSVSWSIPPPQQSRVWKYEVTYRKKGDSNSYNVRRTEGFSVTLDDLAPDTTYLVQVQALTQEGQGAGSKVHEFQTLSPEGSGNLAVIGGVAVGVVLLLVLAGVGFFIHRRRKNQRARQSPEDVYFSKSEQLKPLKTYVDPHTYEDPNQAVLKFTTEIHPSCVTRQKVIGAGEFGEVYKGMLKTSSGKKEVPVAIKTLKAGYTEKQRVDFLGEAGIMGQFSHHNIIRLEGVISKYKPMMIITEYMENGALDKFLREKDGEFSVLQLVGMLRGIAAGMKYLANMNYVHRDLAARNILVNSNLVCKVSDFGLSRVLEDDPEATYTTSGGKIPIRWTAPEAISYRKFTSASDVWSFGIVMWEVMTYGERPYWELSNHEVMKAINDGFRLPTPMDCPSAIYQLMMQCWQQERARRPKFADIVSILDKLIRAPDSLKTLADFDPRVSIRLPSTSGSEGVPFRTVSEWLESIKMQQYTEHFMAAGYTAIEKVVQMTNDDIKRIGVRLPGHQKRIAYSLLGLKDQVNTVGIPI
TGF-beta receptor type-2 (Homo sapiens), sequence (P37173 whole entry, canonical isoform): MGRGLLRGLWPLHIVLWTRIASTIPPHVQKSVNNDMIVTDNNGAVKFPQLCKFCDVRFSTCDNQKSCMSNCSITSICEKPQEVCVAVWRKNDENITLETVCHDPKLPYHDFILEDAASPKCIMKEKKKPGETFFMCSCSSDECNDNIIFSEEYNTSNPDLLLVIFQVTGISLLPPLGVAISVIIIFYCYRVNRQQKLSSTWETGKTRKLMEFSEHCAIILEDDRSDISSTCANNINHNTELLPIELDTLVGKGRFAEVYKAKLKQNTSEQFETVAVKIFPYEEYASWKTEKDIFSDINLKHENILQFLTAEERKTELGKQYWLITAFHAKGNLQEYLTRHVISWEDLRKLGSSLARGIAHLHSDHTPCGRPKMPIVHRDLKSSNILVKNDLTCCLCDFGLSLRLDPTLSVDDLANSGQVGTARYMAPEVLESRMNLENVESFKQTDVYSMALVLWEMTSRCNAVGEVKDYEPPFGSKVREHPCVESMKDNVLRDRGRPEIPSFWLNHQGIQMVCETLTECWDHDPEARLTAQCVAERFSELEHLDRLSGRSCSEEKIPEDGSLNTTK

Row | Compound | Activity [1] [%] | Activity [2] [%] | Activity [3] [%] | Activity [4] [%] | Activity [5] [%] | Activity [6] [%] | Activity [7] [%] | Activity [8] [%] | Activity [9] [%] | Activity [10] [%] | Activity [11] [%] | Activity [12] [%] | Activity [13] [%] | Activity [14] [%] | Activity [15] [%]
1 | Nc1ccccc1Nc1ccc2c(c1)CCc1ccccc1C2=O | 71 | 66 | 99 | 98 | 86 | 98 | 90 | 91 | 93 | 84 | 92 | 81 | 93 | 94 | 87
2 | O=C1c2ccc(Nc3ccc(F)cc3F)cc2CCc2ccc(OC[C@H](O)CO)cc21 [Skepinone-L] | 80 | 97 | 93 | 100 | 100 | 100 | 90 | 86 | 100 | 95 | 100 | 100 | 92 | 95 | 96
